Entries after “also recorded” stand apart in the source; their conditions may differ.
Columns and labels:
healthy cats = experiment: Blood test and blood chemical analysis in healthy cats; type: in vivo, cat; details: after 7 days BID at 10-100 μg/kg oral
Protocol: In this study, 3 male cats and 2 female cats, totally 5 Japanese cats, aging 3 to 6 years old were used, which were raised in an animal hospital and for which no abnormalities were observed clinically and by blood test. The subject cats were individually placed in each cage in which each cat was allowed to take water ad libitum, and each cat was fed twice a day after measuring the necessary items. For the purpose of acclimatization, the cats were measured for blood pressure noninvasively twice a day for 2 weeks.
Blood test and blood chemical analysis were carried out as follows: Blood was collected before administration of beraprost sodium and on the next day of the termination of continuous administration for 7 days at each dose (the continuous administration of one test compound for 7 days is hereinafter referred to as “1 series”) at fasting, and analyzed. Inspection items in the blood test were RBC, WBC, PCV, Hb and Plat, and those in the blood chemical analysis were AST, ALT, T.P, BUN, Cre, Na, K and Cl.
In each administration series, the same cat was used in each administration series as the subject cat for the correctness of the evaluation of the test drug. To eliminate the influence of the test drug of the previous series, wash out period of 2 weeks were given after the termination of the respective series. […]

[1] = test system: cats with chronic renal failure; experiment: Blood biochemical analysis and urinalysis (BUN, serum Cre, glucose) in cats with chronic renal failure; type: in vivo, cat
Protocol: Testing methods for the patients showing uremia caused by chronic renal failure, employed in Example 4 or later, will now be described. The criteria and evaluation items for the cats and dogs with chronic renal failure are as follows: Diagnosis of uremia and chronic renal failure were performed totally taking clinical findings (including findings of uremia) and the results of the blood test, blood biochemical analysis and urinalysis into consideration. As the clinical findings of uremia, existence and degree of polydipsia and diuresis, dehydration, anorexia, weight loss, vomiting symptom and state of dehydration were observed. Existence of chronic renal failure was judged based on the serum Cre value as generally employed. As reference data for grasping the degree of progress of chronic renal failure, BUN value was also monitored.
In the blood test, RBC, WBC, PCV, Hg and PLT were measured. In the blood biochemical analysis, TP, Tcho, AST, ALT, ALP, Tbil, BUN, creatinine, calcium, inorganic phosphorus, glucose, sodium ion, potassium ion and chloride ion were measured. In the urinalysis, protein amount, pH, occult blood, bilirubin and glucose were measured. To eliminate the circadian rhythm and influence by meals on the values of blood biochemical markers, every blood collection was carried out in the morning before feeding (at fasting).
As a more specific criterion for chronic renal failure in cats and dogs in the present Examples, a serum Cre value of 1.4 mg/dL in the blood test was employed. Serum Cre value was measured by creatinine deaminase-amidohydrolase method, and the BUN value as reference data for grasping the degree of progress of chronic renal failure was measured by urease-GLDH method.
Administration of beraprost sodium was conducted by orally administering the tablet with a content of 150 μg/tablet (Example 1) twice a day (300 μg/head/day). The administration was conducted every day and continued basically for 6 months, and in cases where the owner desired, the administration was continued even after the test period. The Examples of the present invention include both cases where the dosing period was less than 6 months and more than 6 months.

[2] = test system: dog with chronic renal failure; experiment: BUN and serum Cre in dog with chronic renal failure (Case-H); type: in vivo; details: 150 μg/capsule oral twice a day alone
[3] = test system: dog with chronic renal failure; experiment: Adverse events in dog with chronic renal failure (Case-H); type: in vivo; details: 150 μg/capsule oral twice a day alone
Protocol: The subject patient to whom beraprost sodium was to be administered was a female dog (hybrid) of 14 years old with a body weight of 6.4 kg. The patient visited the hospital with chief complaints of anorexia and drastic decrease in activity. Based on the past history, clinical observations and results of clinical test, the dog was diagnosed as chronic renal failure. The clinical score at the first visit was as low as 2 points, and treatment with Covalzin at a dose of 200 mg/BID was started. […] In view of this, after obtaining consent by the client, treatment with Covalzin was stopped, and switched to administration of beraprost sodium alone. Beraprost sodium was diluted with polyethylene glycol (Wako) to attain a dose of 150 μg/capsule, and was divided into capsules (size 5 Shionogi Qualicaps). Beraprost sodium was orally administered twice a day at fasting. […] In the above-described series of therapy, feeding of a formula meal and infusion were not performed at all. […] Based on the above, it was first discovered that in chronic renal failure of dogs, in addition to cats, the effect of beraprost sodium to ameliorate uremic symptoms is clearly shown in spite of the fact that Serum Cre value and BUN value which are markers of renal function indicative of renal failure are continuously worsened.

[4] = test system: rat glomerulonephritis models; details: prophylactic administration before the nephritis-inducing substance; cited from earlier work
[5] = Case-A, 150 μg oral BID alone, from start of administration
[6] = Case-A, 6 months after termination (12 months after start)
[7] = Case-B, daily administration for 1 and half years
[8] = Case-E, combination therapy, first about 3 months
[9] = Case-G cat, before the administration (baseline)

CC#CC[C@@H](C)[C@H](O)/C=C/[C@@H]1[C@H]2c3cccc(CCCC(=O)[O-])c3O[C@H]2C[C@H]1O.[Na+] (mixture of isomers) [beraprost sodium, Sodium rac-(1R,2R,3aS,8bS)-2,3,3a,8b-tetrahydro-2-hydroxy-1-[(E)-(3S,4RS)-3-hydroxy-4-methyloct-1-en-6-ynyl]-1H-cyclopenta[b][1]benzofuran-5-butanoate]
blood cell count, electrolytes, renal function and liver function (healthy cats): no adverse change was observed
time at which BUN reached the minimum value ([1]; Case-A, 150 μg oral BID alone): second
time at which serum Cre reached the minimum value ([1]; Case-A, 150 μg oral BID alone): fifth
BUN [1, 5]: decreased
serum Cre [1, 5]: decreased
BUN at follow up [1, 6]: remained within the normal ranges; also recorded: maintained at normal levels
serum Cre value at follow up [1, 6]: remained within the normal ranges; also recorded: maintained at normal levels
BUN [1, 7]: maintained at the normal levels
Cre [1, 7]: maintained at the normal levels
BUN value ([1]; Case-B, first to second month): tendency that BUN value and serum Cre value increase
serum Cre value ([1]; Case-B, first to second month): tendency that BUN value and serum Cre value increase
BUN value ([1]; Case-B, from the fourth month): sharply decreased to the normal values
serum Cre value ([1]; Case-B, from the fourth month): sharply decreased to the normal values
BUN value ([1]; Case-C, during administration): continuously increased
serum Cre value ([1]; Case-C, during administration): did not change or slightly increased
BUN value ([1]; Case-D, after administration): continuously increased
serum Cre value ([1]; Case-D, after administration): kept a high value
BUN value ([1]; Case-E, 7th to 8th month): largely increased
Cre value ([1]; Case-E, 7th to 8th month): kept high
BUN value [1, 8]: continuously increased
serum Cre value [1, 8]: kept high
BUN value ([1]; Case-F, after start of beraprost sodium): kept high
serum Cre value ([1]; Case-F, throughout the entire period): continuously increased
BUN value [1, 9]: 52.2 mg/dL
serum Cre value [1, 9]: 2.56 mg/dL
BUN [2]: did not almost change
serum Cre value [2]: continuously increased
adverse events such as diarrhea, vomiting [3]: no adverse event; also recorded: no adverse action
onset of nephritis (urinary excretion of albumin) [4]: prevented
